Test results reported in patent publication US8585965B2, “Sterilization of polymeric materials” (priority 2006, dated 2013).

Experiments:
Assay type in all cases: cell-based
[1] = test system: Enterococcus faecalis ATCC 29212; test: Radiosensitization of bacteria coated onto a material surface (sterile 12 mm paper disks), gamma irradiation, cfu by dilution plating; settings: for enhancement of the killing efficiency of the irradiation / cfu recovered, 0.3 kGy: 0.3 kGy; for enhancement of the killing efficiency of the irradiation: paper disks; for Post-Treatment CFU Added: 2 hours at room temperature; for cfu recovered, 0.3 kGy / cfu recovered, 0 kGy: paper disk; for cfu recovered, 0 kGy: not irradiated
Procedure: Enterococcus faecalis ATCC 29212, grown overnight in tryptic soy broth at 37° C. without shaking, were centrifuged and resuspended in 2% glucose at a concentration of about 5×10^7 cfu/ml. […] The cfu contained in each sample were quantified by dilution plating and the values are listed as “post-treatment cfu added.” None of the radiosensitizer treatments alone appeared to have a significant adverse effect on the bacteria.
Following radiosensitizer treatment, 0.05 ml of each mixture (containing approximately 1×10^6 cfu) was spotted onto sterile 12 mm paper disks and the disks air dried for 30 minutes. The disks were then placed in sterile tubes and left untreated or irradiated with 0.3 kGy. The cfu were recovered from the disks by vortexing with glass beads for 1 minute in 0.85% saline with 0.35 g/l lecithin and 2.5 ml/l Tween 80. Quantification of the cfu was then performed by dilution plating onto tryptic soy agar.

[2] = test system: Enterococcus faecalis ATCC 29212; test: Radiosensitization of bacteria coated onto Vicryl mesh (Example 2), irradiation 0.1 or 0.2 kGy; design: Inoculum: dose or concentration left out as unconfirmed
Procedure: (§1) Enterococcus faecalis ATCC 29212, grown overnight in tryptic soy broth at 37° C. without shaking, were centrifuged and resuspended in phosphate buffered saline (PBS) at a concentration of roughly 2×10^9 cfu/ml. […] The cfu contained in each sample after this incubation were quantified by dilution plating.
(§2) Following radiosensitizer treatment, 0.01 ml of each mixture (containing approximately 2×10^7 cfu) was spotted onto nine 1 cm×1 cm squares of Vicryl® mesh that were then air dried for 60 minutes. Triplicate samples were then placed in sterile tubes and left untreated or irradiated with 0.1 or 0.2 kGy. The cfu were recovered from the meshes by vortexing with glass beads for 1 minute in 0.85% saline with 0.35 g/l lecithin and 2.5 ml/l Tween 80. Quantification of the cfu was then performed by dilution plating onto tryptic soy agar.

[3] = test system: Enterococcus faecalis ATCC 29212; test: Radiosensitization of bacteria coated onto Prolene mesh (Example 3)
Procedure: as §1, with “about 5×10^8” for “roughly 2×10^9”
as §2, with “5×10^8” for “2×10^7”, “Prolene®” for “Vicryl®”, “0.3” for “0.2”, “mesh” for “meshes”

[4] = test system: Enterococcus faecalis ATCC 29212; test: Radiosensitization of bacteria coated onto Vicryl mesh (Example 3); settings: for Avg CFU Recovered / Log Red v 0 kGy / Log Red v Control / Log Red v Inoculum: 50 μg/ml, Vicryl
Procedure: as §1, with “about 5×10^8” for “roughly 2×10^9”
as §2, with “5×10^8” for “2×10^7”, “0.3” for “0.2”, “mesh” for “meshes”

[5] = test system: Enterococcus faecalis ATCC 29212; test: Radiosensitization of bacteria coated onto Spongostan gelatin sponge (Example 4); settings: 50 μg/ml methylene blue
Procedure: as §1, with “about 5×10^8” for “roughly 2×10^9”
as §2, with “5×10^8” for “2×10^7”, “Spongostan® gelatin sponge” for “Vicryl® mesh”, “minutes. (Spongostan® is a dry artificial sponge of fibrin prepared by clotting with thrombin, a foam or solution of fibrinogen. It is used in conjunction with thrombin as a hemostatic in surgery at sites where bleeding cannot be controlled by more common methods.)” for “minutes.”, “0.3” for “0.2”, “sponge” for “meshes”

[6] = 50 μg/ml methylene blue, 2 hours, no irradiation
[7] = 50 μg/ml, 0.3 kGy, Prolene, triplicate samples

O=C1O[C@H]([C@@H](O)CO)C(O)=C1O [Ascorbic Acid, ascorbic acid]
enhancement of the killing efficiency of the irradiation [1]: greatest effect
Percent Survival 0.3 vs. 0 kGy ([1]; Conc. 200 μg/ml): 0.28%
Post-Treatment CFU Added ([1]; Conc. 200 μg/ml): 8.55E+05 CFU
cfu recovered, 0.3 kGy ([1]; Conc. 200 μg/ml): 9 cfu
cfu recovered, 0 kGy ([1]; Conc. 200 μg/ml): 3270 cfu

CN(C)c1ccc2nc3ccc(=[N+](C)C)cc-3sc2c1 [Methylene Blue, methylene blue]
Percent Survival 0.3 vs. 0 kGy ([1]; Conc. 20 μg/ml): 0.13%
Post-Treatment CFU Added ([1]; Conc. 20 μg/ml): 7.80E+05 CFU
cfu recovered, 0.3 kGy ([1]; Conc. 20 μg/ml): 3 cfu
cfu recovered, 0 kGy ([1]; Conc. 20 μg/ml): 2250 cfu
Avg CFU Rec ([2]; 0 kGy, Vicryl mesh): 7.40E+05 CFU
Avg Log CFU ([2]; 0 kGy, Vicryl mesh): 5.72 Log CFU
cfu contained in sample after incubation ([2]; 50 μg/ml methylene blue, 2 hours at room temperature, PBS, untreated 1.8×10^9): 1.6×10^9 cfu/ml
effect of incubation on the bacterial number [2, 6]: did not significantly affect the bacterial number
Avg Log CFU ([2]; 0.1 kGy, Vicryl mesh): 3.90 Log CFU
Avg CFU Rec ([2]; 0.2 kGy, Vicryl mesh): 1.83E+03 CFU
Avg Log CFU ([2]; 0.2 kGy, Vicryl mesh): 3.08 Log CFU
effect on bacterial recovery ([2]; methylene blue, Vicryl mesh): small effect on bacterial recovery
recovery from unirradiated sample ([2]; methylene blue-treated, 0 kGy, Vicryl mesh, control 15%): 4.6%
Inoculum ([2]; spotted onto Vicryl mesh): 1.60E+07 CFU
cfu contained in sample after incubation ([3]; 50 μg/ml methylene blue, 2 hours at room temperature, PBS, suspension used for Prolene and Vicryl meshes, untreated 4.8×10^8): 4.2×10^8 cfu/ml
effect of incubation on the bacterial number [3, 6]: did not significantly affect the bacterial number
Inoculum ([3]; 50 μg/ml methylene blue, spotted onto Prolene mesh): 4.20E+06 CFU
Avg CFU Recovered ([3]; 50 μg/ml, 0.0 kGy, Prolene): 2.38E+03 CFU
Log Red v 0 kGy ([3]; 50 μg/ml, 0.0 kGy, Prolene): 0.0 Log
Log Red v Control ([3]; 50 μg/ml, 0.0 kGy, Prolene): −1.5 Log
Log Red v Inoculum ([3]; 50 μg/ml, 0.0 kGy, Prolene): −3.2 Log
Avg CFU Recovered ([3]; 50 μg/ml, 0.3 kGy, Prolene): 0.00E+00 CFU
Log Red v 0 kGy ([3]; 50 μg/ml, 0.3 kGy, Prolene): −3.4 Log
Log Red v Control ([3]; 50 μg/ml, 0.3 kGy, Prolene): −1.2 Log
Log Red v Inoculum ([3]; 50 μg/ml, 0.3 kGy, Prolene): −6.6 Log
Plated CFU [3, 7]: 0.00E+00 CFU
Total CFU Recovered [3, 7]: 0.00E+00 CFU
number of bacteria recovered, combination with irradiation compared to methylene blue or irradiation alone ([3]; Prolene mesh): significantly reduced the number of bacteria recovered
Inoculum ([4]; 50 μg/ml methylene blue, spotted onto Vicryl mesh): 4.20E+06 CFU
Avg CFU Recovered ([4]; 0.0 kGy): 1.79E+04 CFU
Log Red v 0 kGy ([4]; 0.0 kGy): 0.0 Log
Log Red v Control ([4]; 0.0 kGy): −1.2 Log
Log Red v Inoculum ([4]; 0.0 kGy): −2.4 Log
Avg CFU Recovered ([4]; 0.3 kGy): 9.83E+01 CFU
Log Red v 0 kGy ([4]; 0.3 kGy): −2.3 Log
Log Red v Control ([4]; 0.3 kGy): −0.8 Log
Log Red v Inoculum ([4]; 0.3 kGy): −4.6 Log
number of bacteria recovered, combination with irradiation compared to methylene blue or irradiation alone ([4]; Vicryl mesh): significantly reduced the number of bacteria recovered
cfu contained in sample after incubation ([5]; 2 hours at room temperature, PBS, untreated 4.8×10^8): 4.2×10^8 cfu/ml
effect of incubation on the bacterial number ([5]; 2 hours, no irradiation): did not significantly affect the bacterial number

Cc1cc2nc3c(=O)[nH]c(=O)nc-3n(C[C@H](O)[C@H](O)[C@H](O)CO)c2cc1C [Riboflavin, riboflavin]
Percent Survival 0.3 vs. 0 kGy ([1]; Conc. 200 μg/ml): 0.28%
Post-Treatment CFU Added ([1]; Conc. 200 μg/ml): 8.50E+05 CFU
cfu recovered, 0.3 kGy ([1]; Conc. 200 μg/ml): 3 cfu
cfu recovered, 0 kGy ([1]; Conc. 200 μg/ml): 1080 cfu
Percent Survival 0.3 vs. 0 kGy ([1]; Conc. 1000 μg/ml): 0.83%
Post-Treatment CFU Added ([1]; Conc. 1000 μg/ml): 8.00E+05 CFU
cfu recovered, 0.3 kGy ([1]; Conc. 1000 μg/ml): 9 cfu
cfu recovered, 0 kGy ([1]; Conc. 1000 μg/ml): 1080 cfu

O=[N+]([O-])[O-].[Na+] [Sodium Nitrate, sodium nitrate]
enhancement of the killing efficiency of the irradiation [1]: greatest effect
Percent Survival 0.3 vs. 0 kGy ([1]; Conc. 5000 μg/ml): 0.00%
Post-Treatment CFU Added ([1]; Conc. 5000 μg/ml): 8.15E+05 CFU
cfu recovered, 0.3 kGy ([1]; Conc. 5000 μg/ml): 0 cfu
cfu recovered, 0 kGy ([1]; Conc. 5000 μg/ml): 420 cfu

Cc1cc2nc3ccc(N(C)C)cc3[s+]c2cc1N.[Cl-] [Toluidine Blue, toluidine blue]
enhancement of the killing efficiency of the irradiation [1]: greatest effect
Percent Survival 0.3 vs. 0 kGy ([1]; Conc. 20 μg/ml): 0.00%
Post-Treatment CFU Added ([1]; Conc. 20 μg/ml): 7.70E+05 CFU
cfu recovered, 0.3 kGy ([1]; Conc. 20 μg/ml): 0 cfu
cfu recovered, 0 kGy ([1]; Conc. 20 μg/ml): 87 cfu
Percent Survival 0.3 vs. 0 kGy ([1]; Conc. 100 μg/ml): 0.00%
Post-Treatment CFU Added ([1]; Conc. 100 μg/ml): 4.65E+05 CFU
cfu recovered, 0.3 kGy ([1]; Conc. 100 μg/ml): 0 cfu
cfu recovered, 0 kGy ([1]; Conc. 100 μg/ml): 72 cfu
